Data: patent US11564920B2, “5-heteroaryl-1H-pyrazol-3-amine derivative” (Sumitomo Pharma Co., Ltd., priority 2020, dated 2023)
Read-outs that look alike come from different tables or passages of the source.

How the values were obtained:
ES-2 cells = assay: Cell growth suppression experiment; format: cell-based; settings: for IC50: Homo sapiens, 48 h, cultured for 2 days, read-out: IC50 (cell growth suppression, ranking)
Protocol: ES-2 cells were obtained from the American Type Culture Collection (ATCC). These cells were cultured at 37° C. in the presence of 5% CO2 in a 10% fetal bovine serum, […] penicillin/streptomycin containing McCoy's 5a medium.
500 cells were seeded for each well in a 384-well plate, and the evaluated compound was added so that the final concentration of DMSO would be 0.1% to culture the cells for 2 days. After completion of the culture, the cell viability rate was calculated using CellTiter-Glo® 3D Reagent (Promega, G968B).

[1] = tested on: Human bone marrow CD34 positive hematopoietic stem cells; assay: Human bone marrow cell colony formation test (hemotoxicological evaluation test); format: cell-based; settings: 100 nM; for Colony count (/well), mean: 48 hours, then about 2 weeks culture
Protocol: Human bone marrow CD34 positive hematopoietic stem cells were obtained from Lonza K. K. The frozen cells were thawed in a medium prepared by mixing a Methocult Express medium and a 10% fetal bovine serum with 1% penicillin/streptomycin containing RPMI 1640 medium at 9:1. 5000 cells were seeded per well in a 6 well plate and cultured overnight at […] in the presence of 5% CO2. The evaluated compound was added so that the final concentration of DMSO would be 0.1% and 100 nM, and the cells were cultured for 48 hours. The cells were retrieved and washed with PBS. ⅙ of the amount of cells was seeded in a 12 well plate and cultured for about. 2 weeks at 37° C. in the presence of 5% CO2. After completion of culture, the number of colonies formed was calculated using Thiazolyl blue tetrazolium bromide (MTT).

[2] = Liposome encapsulation test (Test Example 6); format: physicochemical
Protocol: 6.48 g of hydrogenated soybean phosphatidylcholine (COATSOME NC-21E, NOF Corporation), 2.32 g of cholesterol (Sigma) and 2.06 g of distearoylphosphatidylethanolamine-methoxypolyethylene glycol 2000 (SUNBRIGHT DSPE-020CN, NOF Corporation) were dissolved in 560 mL of t-butyl alcohol heated to 65° C. The solution was frozen with dry ice/acetone bath and t-butyl alcohol was then removed by evaporation under reduced pressure to obtain a lipid mixture.
200 mL of 250 mM ammonium sulfate solution was added to the lipid mixture. The resulting mixture was heated to 65° C. and dispersed with a homogenizer (ULTRA-TURRAX, IKA) to obtain a crude liposome dispersion. […] The prepared amount was increased or decreased appropriately.
2 to 3 mg of the test compound was weighed out. 1 mL of empty liposome solution with a total lipid concentration of 50 mM was added. An aqueous 1 mol/L hydrochloric acid or 1 mol/L sodium hydroxide solution was added to adjust the pH to 5.5 to 7. […] Insolubles, when present, were removed by centrifugation for 5 minutes at 15,000×g.
100 μL of liposome solution was passed through an ultrafiltration filter (Amicon Ultra, 100K, 0.5 mL, Merck), and centrifuged at 4° C. at 15,000×g for 10 minutes. The concentration of the compound in the filtrate after ultrafiltration was measured by HPLC as the unencapsulated compound concentration.
The liposome solution was diluted with a trifluoroacetic acid/water/methanol mixture (0.1/25/75) and was left standing for 10 minutes or longer at 5° C. The solution was centrifuged for 5 minutes at 15,000×g to remove insolubles. The compound concentration in the supernatant was measured by HPLC as the compound concentration in the liposome solution.
The encapsulation ratio and the encapsulation efficiency were calculated by the following equations. Encapsulation ratio (%)=(compound concentration in liposome solution−unencapsulated compound concentration)×100/compound concentration in liposome solution Encapsulation efficiency (%)=(compound concentration in liposome solution−unencapsulated compound concentration)×100/concentration upon compound introduction

[3] = Pharmacokinetic test in mice; format: in vivo; settings: female, BALB/c, mouse, whole blood, iv, liposome formulations, 1.0 mg/kg i.v., trapezoidal method
CAMK2A = CAMK2A (Homo sapiens (Human), UniProt Q9UQM7); assay: Kinase selectivity test (HotSpot Full Panel Kinase profiling); format: biochemical; settings: 100 nM, ATP 10 μM; read-out: Residual activity (%) CAMK2A
Protocol: (§1) Buffer: 20 mM HEPES, pH 7.5, 10 mM MgCl2, 2 mM […] (as needed), 1 mM EGTA, 0.02% Brij35, 0.02 mg/mL BSA, 0.1 mM Na3VO4, 2 mM DTT, 1% DMSO
(§2) Compound concentration: 100 nM

MARK4 = MARK4 (Homo sapiens (Human), UniProt Q96L34); assay: as above; format: biochemical; settings: 100 nM, ATP 10 μM; read-out: Residual activity (%) MARK4 (MARKA [sic] in Table 32)
Protocol: as §1, §2

MELK = MELK (Homo sapiens (Human), UniProt Q14680); assay: as above; format: biochemical; settings: 100 nM, ATP 10 μM; read-out: Residual activity (%) MELK
MELK, sequence (Q14680 whole entry): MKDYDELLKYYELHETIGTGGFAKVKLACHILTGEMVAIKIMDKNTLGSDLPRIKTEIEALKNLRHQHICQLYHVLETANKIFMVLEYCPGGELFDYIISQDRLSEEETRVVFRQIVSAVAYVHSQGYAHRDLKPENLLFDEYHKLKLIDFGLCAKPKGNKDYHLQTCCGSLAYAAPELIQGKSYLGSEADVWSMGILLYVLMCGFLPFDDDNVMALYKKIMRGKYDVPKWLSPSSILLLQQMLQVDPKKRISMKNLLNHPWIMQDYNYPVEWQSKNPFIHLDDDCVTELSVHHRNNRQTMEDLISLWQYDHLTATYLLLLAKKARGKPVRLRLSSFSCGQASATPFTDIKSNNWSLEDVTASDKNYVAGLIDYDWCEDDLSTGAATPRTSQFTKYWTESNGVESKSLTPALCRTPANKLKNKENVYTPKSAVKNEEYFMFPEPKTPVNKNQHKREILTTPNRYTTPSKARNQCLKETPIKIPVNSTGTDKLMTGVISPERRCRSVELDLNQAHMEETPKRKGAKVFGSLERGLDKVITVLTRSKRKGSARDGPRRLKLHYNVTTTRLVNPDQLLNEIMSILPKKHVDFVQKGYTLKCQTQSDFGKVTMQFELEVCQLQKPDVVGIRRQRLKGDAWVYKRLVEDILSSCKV
Protocol: as §1, §2

RET = RET (Homo sapiens (Human), UniProt P07949); assay: as above; format: biochemical; settings: 100 nM, ATP 10 μM; read-out: Residual activity (%) RET
Protocol: as §1, §2

RSK1 = RSK1 (Homo sapiens (Human), UniProt Q15418); assay: as above; format: biochemical; settings: 100 nM, ATP 10 μM; read-out: Residual activity (%) RSK1
RSK1, sequence (Q15418 whole entry): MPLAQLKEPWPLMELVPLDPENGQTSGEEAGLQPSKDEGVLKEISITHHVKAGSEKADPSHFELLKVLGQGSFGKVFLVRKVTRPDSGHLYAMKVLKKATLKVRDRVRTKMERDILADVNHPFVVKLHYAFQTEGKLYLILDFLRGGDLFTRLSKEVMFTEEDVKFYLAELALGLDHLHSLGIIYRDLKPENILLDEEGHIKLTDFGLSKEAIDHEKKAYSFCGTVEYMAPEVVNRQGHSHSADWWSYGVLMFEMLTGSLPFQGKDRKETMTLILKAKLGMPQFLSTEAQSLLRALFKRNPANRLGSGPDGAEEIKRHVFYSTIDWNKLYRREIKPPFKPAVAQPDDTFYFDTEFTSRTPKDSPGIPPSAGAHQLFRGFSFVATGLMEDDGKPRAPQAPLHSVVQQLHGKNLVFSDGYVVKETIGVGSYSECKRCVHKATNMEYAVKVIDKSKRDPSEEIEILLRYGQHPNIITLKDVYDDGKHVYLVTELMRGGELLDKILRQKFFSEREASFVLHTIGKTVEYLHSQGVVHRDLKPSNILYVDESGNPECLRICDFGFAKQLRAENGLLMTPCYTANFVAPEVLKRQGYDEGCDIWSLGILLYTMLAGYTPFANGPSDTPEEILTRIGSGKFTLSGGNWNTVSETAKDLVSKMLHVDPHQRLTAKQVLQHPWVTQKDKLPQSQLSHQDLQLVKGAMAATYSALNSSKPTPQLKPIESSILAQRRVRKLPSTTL
Protocol: as §1, §2

RSK2 = RSK2 (Homo sapiens (Human), UniProt P51812); assay: as above; format: biochemical; settings: 100 nM, ATP 10 μM; read-out: Residual activity (%) RSK2
Protocol: as §1, §2

RSK3 = RSK3 (Homo sapiens (Human), UniProt Q15349); assay: as above; format: biochemical; settings: 100 nM, ATP 10 μM; read-out: Residual activity (%) RSK3
RSK3, sequence (Q15349 whole entry): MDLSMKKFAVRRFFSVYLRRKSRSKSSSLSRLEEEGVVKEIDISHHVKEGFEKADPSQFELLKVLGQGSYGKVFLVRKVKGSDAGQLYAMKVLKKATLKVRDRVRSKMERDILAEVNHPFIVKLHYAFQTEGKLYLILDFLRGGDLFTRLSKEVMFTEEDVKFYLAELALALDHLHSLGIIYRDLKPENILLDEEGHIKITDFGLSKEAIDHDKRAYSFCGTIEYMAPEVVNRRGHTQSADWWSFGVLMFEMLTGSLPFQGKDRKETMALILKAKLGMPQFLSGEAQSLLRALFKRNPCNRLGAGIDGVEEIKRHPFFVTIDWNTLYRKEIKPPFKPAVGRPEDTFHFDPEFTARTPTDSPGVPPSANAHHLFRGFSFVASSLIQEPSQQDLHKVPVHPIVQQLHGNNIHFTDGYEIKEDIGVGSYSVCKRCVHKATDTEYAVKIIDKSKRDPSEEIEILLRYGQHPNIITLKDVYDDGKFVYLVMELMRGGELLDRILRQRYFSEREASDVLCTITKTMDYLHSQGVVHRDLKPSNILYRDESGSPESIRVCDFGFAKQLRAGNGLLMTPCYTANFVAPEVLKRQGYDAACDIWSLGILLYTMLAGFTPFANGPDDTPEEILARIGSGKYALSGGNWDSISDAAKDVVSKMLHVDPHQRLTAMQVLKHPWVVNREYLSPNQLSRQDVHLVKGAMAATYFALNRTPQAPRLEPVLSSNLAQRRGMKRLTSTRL
Protocol: as §1, §2

RSK4 = RSK4 (Homo sapiens (Human), UniProt Q9UK32); assay: as above; format: biochemical; settings: 100 nM, ATP 10 μM; read-out: Residual activity (%) RSK4
RSK4, sequence (Q9UK32 whole entry): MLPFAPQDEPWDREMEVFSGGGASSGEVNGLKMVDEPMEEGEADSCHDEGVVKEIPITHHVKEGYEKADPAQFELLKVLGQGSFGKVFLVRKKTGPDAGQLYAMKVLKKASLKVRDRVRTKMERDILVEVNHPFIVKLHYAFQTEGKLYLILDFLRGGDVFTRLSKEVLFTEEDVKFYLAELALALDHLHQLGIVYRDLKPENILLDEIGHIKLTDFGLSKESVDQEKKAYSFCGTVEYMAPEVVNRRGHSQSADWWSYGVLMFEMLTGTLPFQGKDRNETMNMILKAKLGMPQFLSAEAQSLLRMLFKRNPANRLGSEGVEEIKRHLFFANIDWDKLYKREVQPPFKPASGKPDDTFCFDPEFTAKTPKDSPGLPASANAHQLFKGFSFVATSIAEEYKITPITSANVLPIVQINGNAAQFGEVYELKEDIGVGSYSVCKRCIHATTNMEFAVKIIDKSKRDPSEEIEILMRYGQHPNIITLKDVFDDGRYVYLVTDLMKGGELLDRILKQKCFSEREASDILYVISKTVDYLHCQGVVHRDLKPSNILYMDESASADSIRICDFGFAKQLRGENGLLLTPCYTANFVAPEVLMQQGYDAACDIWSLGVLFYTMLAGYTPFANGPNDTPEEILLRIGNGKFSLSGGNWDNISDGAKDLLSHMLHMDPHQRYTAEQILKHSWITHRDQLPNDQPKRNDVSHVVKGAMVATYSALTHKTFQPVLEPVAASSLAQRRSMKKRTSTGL
Protocol: as §1, §2

SIK2 = SIK2 (Homo sapiens (Human), UniProt Q9H0K1); assay: as above; format: biochemical; settings: 100 nM, ATP 10 μM; read-out: Residual activity (%) SIK2
SIK2, sequence (Q9H0K1 whole entry): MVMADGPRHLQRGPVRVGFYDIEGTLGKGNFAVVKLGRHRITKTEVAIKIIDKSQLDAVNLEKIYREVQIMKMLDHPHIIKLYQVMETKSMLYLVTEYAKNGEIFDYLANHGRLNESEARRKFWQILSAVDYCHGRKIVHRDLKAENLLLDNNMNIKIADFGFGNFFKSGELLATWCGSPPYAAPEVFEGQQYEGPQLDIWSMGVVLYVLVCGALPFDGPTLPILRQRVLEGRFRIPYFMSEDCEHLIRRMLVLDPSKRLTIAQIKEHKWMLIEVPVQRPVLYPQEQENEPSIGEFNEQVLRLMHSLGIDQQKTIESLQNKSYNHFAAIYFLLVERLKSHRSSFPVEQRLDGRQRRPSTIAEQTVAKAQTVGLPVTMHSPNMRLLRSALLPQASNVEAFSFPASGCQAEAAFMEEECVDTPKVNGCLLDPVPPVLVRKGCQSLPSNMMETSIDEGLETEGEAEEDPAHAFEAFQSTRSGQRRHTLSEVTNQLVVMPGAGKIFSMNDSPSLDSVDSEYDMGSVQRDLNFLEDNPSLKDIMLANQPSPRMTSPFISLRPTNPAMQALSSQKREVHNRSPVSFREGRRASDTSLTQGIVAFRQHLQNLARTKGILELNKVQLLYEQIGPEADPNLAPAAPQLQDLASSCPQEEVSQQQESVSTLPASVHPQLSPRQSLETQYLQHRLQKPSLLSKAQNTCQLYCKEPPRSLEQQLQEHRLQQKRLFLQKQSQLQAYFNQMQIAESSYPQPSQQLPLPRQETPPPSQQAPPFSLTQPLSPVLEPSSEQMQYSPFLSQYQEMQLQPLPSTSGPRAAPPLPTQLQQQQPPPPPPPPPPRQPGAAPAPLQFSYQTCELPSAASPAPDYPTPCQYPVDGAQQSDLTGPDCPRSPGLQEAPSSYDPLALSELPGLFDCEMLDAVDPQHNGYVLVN
Protocol: as §1, §2

TNIK = TNIK (Homo sapiens (Human), UniProt Q9UKE5); assay: as above; format: biochemical; settings: 100 nM, ATP 10 μM; read-out: Residual activity (%) TNIK
Protocol: as §1, §2

TRKC = TRKC (Homo sapiens (Human), UniProt Q16288); assay: as above; format: biochemical; settings: 100 nM, ATP 10 μM; read-out: Residual activity (%) TRKC
TRKC, sequence (Q16288 32-839): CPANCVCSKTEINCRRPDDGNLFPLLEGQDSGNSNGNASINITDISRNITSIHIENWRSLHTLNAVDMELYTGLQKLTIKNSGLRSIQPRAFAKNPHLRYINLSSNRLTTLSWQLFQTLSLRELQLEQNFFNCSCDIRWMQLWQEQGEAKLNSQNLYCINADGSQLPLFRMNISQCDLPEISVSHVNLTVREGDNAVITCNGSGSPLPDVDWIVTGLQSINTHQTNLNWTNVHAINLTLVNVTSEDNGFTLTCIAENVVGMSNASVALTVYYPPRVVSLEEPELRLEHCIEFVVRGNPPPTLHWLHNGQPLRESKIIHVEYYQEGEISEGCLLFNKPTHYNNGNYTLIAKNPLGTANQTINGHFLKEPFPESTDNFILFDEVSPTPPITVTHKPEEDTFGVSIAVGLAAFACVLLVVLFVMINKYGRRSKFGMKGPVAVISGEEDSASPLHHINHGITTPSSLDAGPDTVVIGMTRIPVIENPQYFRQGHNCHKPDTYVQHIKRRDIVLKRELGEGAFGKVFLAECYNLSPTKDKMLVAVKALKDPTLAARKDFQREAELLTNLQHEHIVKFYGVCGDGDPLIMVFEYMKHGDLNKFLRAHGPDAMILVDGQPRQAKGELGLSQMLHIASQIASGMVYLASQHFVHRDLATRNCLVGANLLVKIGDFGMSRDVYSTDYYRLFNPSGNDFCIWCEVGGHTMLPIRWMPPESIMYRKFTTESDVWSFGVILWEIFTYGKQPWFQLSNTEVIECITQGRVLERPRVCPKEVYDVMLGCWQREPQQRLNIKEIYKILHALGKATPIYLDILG
Protocol: as §1, §2

Compound concentration in liposome solution ([2]; concentration upon compound introduction 2 mg/mL) | SMILES | IC50 (ES-2 cells) | cell growth suppression effect (in words) (ES-2 cells; compared with prexasertib) | effect on human bone marrow cell colony formation (in words) [1] | Colony count (/well), mean [1] | Encapsulation efficiency [2] | Encapsulation efficiency ([2]; concentration upon compound introduction 3 mg/mL) | liquid viscosity during the liposome encapsulation procedure ([2]; pH adjusted by adding 1 mol/L hydrochloric acid) | AUC(0-t) [3] | remaining activity at 0.1 µM (CAMK2A) | remaining activity at 0.1 µM (MARK4) | remaining activity at 0.1 µM (MELK) | remaining activity at 0.1 µM (RET) | remaining activity at 0.1 µM (RSK1) | remaining activity at 0.1 µM (RSK2) | remaining activity at 0.1 µM (RSK3) | remaining activity at 0.1 µM (RSK4) | remaining activity at 0.1 µM (SIK2) | remaining activity at 0.1 µM (TNIK) | remaining activity at 0.1 µM (TRKC)
 | COc1ccnc(OCCCN)c1-c1cc(Nc2cnc(C#N)cn2)n[nH]1 [Example 1, 5-({5-[2-(3-aminopropoxy)-4-methoxypyridin-3-yl]-1H-pyrazol-3-yl}amino)pyrazine-2-carbonitrile] | < 30 nM | excellent cell growth suppression effect that is equivalent to that of prexasertib | does not exhibit an effect of suppressing human bone marrow colony formation | 34 /well | ≥ 80% | 87.4% | increase in viscosity was not found | 447 µg·h/mL | 13.9% | 24.1% | 17.2% | 19% | 8.51% | 4.32% | 3.91% | 9.05% | 14.1% | 17.8% | 17.4%
2160 µg/mL | COc1cccc(OCCCN)c1-c1cc(Nc2cnc(C#N)cn2)n[nH]1 [Prexasertib, reference compound] | < 30 nM |  | exhibits an effect of suppressing human bone marrow cell colony formation | 19 /well |  |  |  | 236 µg·h/mL | 2.52% | 10.2% | 11.4% | 7.12% | 2.23% | 0.98% | 1.69% | 4.78% | 2.62% | 7.76% | 12.7%
